The values that follow come from PubChem BioAssay (NCI).

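Five concentrations, 48 hours, 96-well plates. TGI: total growth inhibition.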 A value given as a limit tells only on which side of the number the result lay.

The test system of one assay is MCF7 breast. Kind of assay: NCI tumour cell line growth inhibition, 48 h.
On to `COc1ccc(C2CC(c3c(O)ccc4ccccc34)=NN2c2ccc([N+](=O)[O-])cc2[N+](=O)[O-])cc1OC` (stereo not drawn), for which the TGI is more than 91.7 µM.

Regarding `S=C(N/N=C\C=N/NC(=S)N1CCCCC1)N1CCCCC1`, the TGI was more than 100 µM.

With `O=C(O)CSc1nnc(COc2ccc(Cl)cc2)n1-c1ccccc1`, the TGI was more than 100 µM.

For the compound `CN(C)CCCOc1nc2c(c(=O)n(C)c(=O)n2C)n1C` (tested in a mixture with another compound), the TGI was more than 100 µM.

Turning to `Cc1ccc(C(=O)Nc2ccc(CP(=O)(O)O)cc2CP(=O)(O)O)cc1NC(=O)c1cccc(N)c1`, the TGI is more than 100 µM.

For `NCC1CCN(c2nc3ccccc3c3c2CCCC3)CC1`, the TGI was found to be 15 µM.

For the compound `CCN1CC2=C(NC(=S)NC2c2ccc(Cl)cc2)/C(=C/c2ccc(Cl)cc2)C1` (stereo not drawn), the TGI was more than 100 µM.

In turn, `NC(=O)N/N=C(\Cc1nc2ccc(Cl)cc2[nH]c1=O)C(=O)Nc1ccc(Cl)cc1Cl` returned a TGI of more than 100 µM.

`O=C(CN1c2ccccc2Sc2ccccc21)N1CCNCC1` showed a TGI of more than 100 µM.

Compound `O=C(/C=C/c1ccc(O)c([N+](=O)[O-])c1)CC(=O)/C=C/c1ccc(O)c([N+](=O)[O-])c1` came in with a TGI of more than 100 µM.

As to `OCC1CCCCCCCCCCC12SCCCS2` (stereo not drawn), the TGI was more than 100 µM.

`CC1=C(O)C(=O)[C@@H]2O[C@@H]2C1=O` came in with a TGI of 31.7 µM.

In the case of `CC(O[Si](c1ccccc1)(c1ccccc1)C(C)(C)C)[C@H](NC(=O)OC(C)(C)C)C(=O)O[Si](c1ccccc1)(c1ccccc1)C(C)(C)C` (stereo partly drawn), the TGI turned out to be 48.6 µM.

In the case of `COc1ccc(-c2cc(-c3ccco3)c(C#N)c(=S)n2C2OC(COC(C)=O)C(OC(C)=O)C(OC(C)=O)C2OC(C)=O)cc1` (stereo not drawn), the TGI was more than 100 µM.

Take `Cc1ccc(-c2c(C#N)c(-c3ccccc3)n(NS(=O)(=O)c3ccccc3)c(=O)c2C#N)cc1`: the TGI is more than 100 µM.

The compound `Cc1c(-c2nc3ccccc3[nH]2)c(=O)n(-c2ccccc2)n1C` gave a TGI of more than 100 µM.

`Cc1nnc(Nc2ccccc2)o1` gave a TGI of more than 100 µM.

Take `COc1cc(O)c(/C=N/N=C(\N)NO)c(OC)c1`: the TGI was more than 10 µM.

The test system of another assay is MOLT-4 leukemia. The assay can be described thus: NCI tumour cell line growth inhibition, 48 h.
`COc1ccc(C2CC(c3c(O)ccc4ccccc34)=NN2c2ccc([N+](=O)[O-])cc2[N+](=O)[O-])cc1OC` (stereo not drawn) yielded a TGI of 21.5 µM.

With `O=C(O)CSc1nnc(COc2ccc(Cl)cc2)n1-c1ccccc1`, the TGI is more than 100 µM.

In turn, `CN(C)CCCOc1nc2c(c(=O)n(C)c(=O)n2C)n1C` (tested in a mixture with another compound) showed a TGI of 13.9 µM.

In turn, `Cc1ccc(C(=O)Nc2ccc(CP(=O)(O)O)cc2CP(=O)(O)O)cc1NC(=O)c1cccc(N)c1` displayed a TGI of more than 100 µM.

`CC(C)(C)c1ccc2c(c1)CNCCNCc1cc(C(C)(C)C)ccc1OCC1(CO2)COc2ccc(C(C)(C)C)cc2CNCCNCc2cc(C(C)(C)C)ccc2OC1` displayed a TGI of 0.504 µM.

Turning to `NCC1CCN(c2nc3ccccc3c3c2CCCC3)CC1`, the TGI amounted to 11.7 µM.

The compound `CCN1CC2=C(NC(=S)NC2c2ccc(Cl)cc2)/C(=C/c2ccc(Cl)cc2)C1` (stereo not drawn) registered a TGI of 79.2 µM.

As for `CCOC(=O)C1Cc2[nH]c3ccccc3c2C(C)C1C` (stereo not drawn), the TGI is 42 µM.

As for `NC(=O)N/N=C(\Cc1nc2ccc(Cl)cc2[nH]c1=O)C(=O)Nc1ccc(Cl)cc1Cl`, the TGI was more than 100 µM.

`O=C(CN1c2ccccc2Sc2ccccc21)N1CCNCC1` registered a TGI of more than 100 µM.

Compound `OCC1CCCCCCCCCCC12SCCCS2` (stereo not drawn) had a TGI of more than 100 µM.

Compound `Cn1cc2ccccc2c1-c1nc(N)nc(F)n1` came in with a TGI of more than 100 µM.

`CC1=C(O)C(=O)[C@@H]2O[C@@H]2C1=O`: the TGI is 10.9 µM.

`CC(O[Si](c1ccccc1)(c1ccccc1)C(C)(C)C)[C@H](NC(=O)OC(C)(C)C)C(=O)O[Si](c1ccccc1)(c1ccccc1)C(C)(C)C` (stereo partly drawn): the TGI came out at 53.1 µM.

Compound `COc1ccc(-c2cc(-c3ccco3)c(C#N)c(=S)n2C2OC(COC(C)=O)C(OC(C)=O)C(OC(C)=O)C2OC(C)=O)cc1` (stereo not drawn) yielded a TGI of more than 100 µM.

Compound `Cc1ccc(-c2c(C#N)c(-c3ccccc3)n(NS(=O)(=O)c3ccccc3)c(=O)c2C#N)cc1` displayed a TGI of 72.6 µM.

Compound `COc1ccc(C(C#N)NNC(=O)c2ccccc2O)cc1OC` (stereo not drawn) came in with a TGI of more than 100 µM.

Turning to `O=c1[nH]n2c(=O)cc[nH]c2c1-c1nnns1`, the TGI was more than 100 µM.

In the case of `Cc1c(-c2nc3ccccc3[nH]2)c(=O)n(-c2ccccc2)n1C`, the TGI is more than 100 µM.

In turn, `N.N.N.O=[N+]([O-])[O-].O=[N+]([O-])[O-].O=[N+]([O-])[O-].O=[N+]([O-])[O-].[Co+3]` gave a TGI of more than 100 µM.

As to `Cc1nnc(Nc2ccccc2)o1`, the TGI is more than 100 µM.

The test system of another assay is UO-31 renal. The assay can be described thus: NCI tumour cell line growth inhibition, 48 h.
For the compound `COc1ccc(C2CC(c3c(O)ccc4ccccc34)=NN2c2ccc([N+](=O)[O-])cc2[N+](=O)[O-])cc1OC` (stereo not drawn), the TGI was 97.4 µM.

As for `S=C(N/N=C\C=N/NC(=S)N1CCCCC1)N1CCCCC1`, the TGI is more than 63.1 µM.

Compound `O=C(O)CSc1nnc(COc2ccc(Cl)cc2)n1-c1ccccc1` registered a TGI of more than 100 µM.

Compound `CN(C)CCCOc1nc2c(c(=O)n(C)c(=O)n2C)n1C` (tested in a mixture with another compound) gave a TGI of more than 100 µM.

Compound `Cc1ccc(C(=O)Nc2ccc(CP(=O)(O)O)cc2CP(=O)(O)O)cc1NC(=O)c1cccc(N)c1` yielded a TGI of more than 100 µM.

In the case of `CC(C)(C)c1ccc2c(c1)CNCCNCc1cc(C(C)(C)C)ccc1OCC1(CO2)COc2ccc(C(C)(C)C)cc2CNCCNCc2cc(C(C)(C)C)ccc2OC1`, the TGI is 3.25 µM.

On to `NCC1CCN(c2nc3ccccc3c3c2CCCC3)CC1`, for which the TGI is 11.9 µM.

Take `CCN1CC2=C(NC(=S)NC2c2ccc(Cl)cc2)/C(=C/c2ccc(Cl)cc2)C1` (stereo not drawn): the TGI was more than 100 µM.

`CCOC(=O)C1Cc2[nH]c3ccccc3c2C(C)C1C` (stereo not drawn): the TGI was found to be 35.8 µM.

Compound `NC(=O)N/N=C(\Cc1nc2ccc(Cl)cc2[nH]c1=O)C(=O)Nc1ccc(Cl)cc1Cl` registered a TGI of more than 100 µM.

In the case of `O=C(CN1c2ccccc2Sc2ccccc21)N1CCNCC1`, the TGI is more than 100 µM.

As to `O=C(/C=C/c1ccc(O)c([N+](=O)[O-])c1)CC(=O)/C=C/c1ccc(O)c([N+](=O)[O-])c1`, the TGI was more than 100 µM.

In turn, `OCC1CCCCCCCCCCC12SCCCS2` (stereo not drawn) displayed a TGI of more than 100 µM.

`Cn1cc2ccccc2c1-c1nc(N)nc(F)n1` gave a TGI of more than 100 µM.

As for `CC1=C(O)C(=O)[C@@H]2O[C@@H]2C1=O`, the TGI stood at 54.1 µM.

Compound `CC(O[Si](c1ccccc1)(c1ccccc1)C(C)(C)C)[C@H](NC(=O)OC(C)(C)C)C(=O)O[Si](c1ccccc1)(c1ccccc1)C(C)(C)C` (stereo partly drawn) yielded a TGI of 26.3 µM.

For the compound `COc1ccc(-c2cc(-c3ccco3)c(C#N)c(=S)n2C2OC(COC(C)=O)C(OC(C)=O)C(OC(C)=O)C2OC(C)=O)cc1` (stereo not drawn), the TGI is 27.2 µM.

As to `COc1ccc(C(C#N)NNC(=O)c2ccccc2O)cc1OC` (stereo not drawn), the TGI was determined as 2.2 µM.

The compound `O=c1[nH]n2c(=O)cc[nH]c2c1-c1nnns1` returned a TGI of more than 100 µM.

Take `Cc1c(-c2nc3ccccc3[nH]2)c(=O)n(-c2ccccc2)n1C`: the TGI was more than 100 µM.

Regarding `N.N.N.O=[N+]([O-])[O-].O=[N+]([O-])[O-].O=[N+]([O-])[O-].O=[N+]([O-])[O-].[Co+3]`, the TGI was more than 100 µM.

In turn, `Cc1nnc(Nc2ccccc2)o1` showed a TGI of more than 100 µM.

The compound `COc1cc(O)c(/C=N/N=C(\N)NO)c(OC)c1` yielded a TGI of more than 10 µM.

The subject of a further assay is SR leukemia. Kind of assay: NCI tumour cell line growth inhibition, 48 h.
Compound `CCOC(=O)C1Cc2[nH]c3ccccc3c2C(C)C1C` (stereo not drawn) gave a TGI of 41.2 µM.

`OCC1CCCCCCCCCCC12SCCCS2` (stereo not drawn) yielded a TGI of more than 100 µM.

The compound `Cn1cc2ccccc2c1-c1nc(N)nc(F)n1` registered a TGI of more than 100 µM.

For the compound `CC(O[Si](c1ccccc1)(c1ccccc1)C(C)(C)C)[C@H](NC(=O)OC(C)(C)C)C(=O)O[Si](c1ccccc1)(c1ccccc1)C(C)(C)C` (stereo partly drawn), the TGI amounted to 82 µM.

In turn, `COc1ccc(C(C#N)NNC(=O)c2ccccc2O)cc1OC` (stereo not drawn) showed a TGI of more than 100 µM.

`O=c1[nH]n2c(=O)cc[nH]c2c1-c1nnns1` displayed a TGI of more than 100 µM.

In turn, `Cc1nnc(Nc2ccccc2)o1` came in with a TGI of more than 100 µM.

For a further assay, the system named is HCT-15 colon. Kind of assay: NCI tumour cell line growth inhibition, 48 h.
On to `COc1ccc(C2CC(c3c(O)ccc4ccccc34)=NN2c2ccc([N+](=O)[O-])cc2[N+](=O)[O-])cc1OC` (stereo not drawn), for which the TGI is more than 100 µM.

For the compound `S=C(N/N=C\C=N/NC(=S)N1CCCCC1)N1CCCCC1`, the TGI was more than 100 µM.

With `O=C(O)CSc1nnc(COc2ccc(Cl)cc2)n1-c1ccccc1`, the TGI is more than 100 µM.

As for `CN(C)CCCOc1nc2c(c(=O)n(C)c(=O)n2C)n1C` (tested in a mixture with another compound), the TGI came to 42.9 µM.

Consider `Cc1ccc(C(=O)Nc2ccc(CP(=O)(O)O)cc2CP(=O)(O)O)cc1NC(=O)c1cccc(N)c1`, for which the TGI was more than 100 µM.

With `CC(C)(C)c1ccc2c(c1)CNCCNCc1cc(C(C)(C)C)ccc1OCC1(CO2)COc2ccc(C(C)(C)C)cc2CNCCNCc2cc(C(C)(C)C)ccc2OC1`, the TGI turned out to be 2.17 µM.

As for `NCC1CCN(c2nc3ccccc3c3c2CCCC3)CC1`, the TGI was 14.9 µM.

`CCN1CC2=C(NC(=S)NC2c2ccc(Cl)cc2)/C(=C/c2ccc(Cl)cc2)C1` (stereo not drawn) returned a TGI of more than 100 µM.

On to `CCOC(=O)C1Cc2[nH]c3ccccc3c2C(C)C1C` (stereo not drawn), for which the TGI was 32.1 µM.

`NC(=O)N/N=C(\Cc1nc2ccc(Cl)cc2[nH]c1=O)C(=O)Nc1ccc(Cl)cc1Cl` registered a TGI of more than 100 µM.

Compound `O=C(CN1c2ccccc2Sc2ccccc21)N1CCNCC1` registered a TGI of more than 100 µM.

The compound `O=C(/C=C/c1ccc(O)c([N+](=O)[O-])c1)CC(=O)/C=C/c1ccc(O)c([N+](=O)[O-])c1` gave a TGI of more than 100 µM.

As to `OCC1CCCCCCCCCCC12SCCCS2` (stereo not drawn), the TGI was more than 100 µM.

In turn, `Cn1cc2ccccc2c1-c1nc(N)nc(F)n1` showed a TGI of more than 100 µM.

Turning to `CC1=C(O)C(=O)[C@@H]2O[C@@H]2C1=O`, the TGI amounted to 22 µM.

Compound `CC(O[Si](c1ccccc1)(c1ccccc1)C(C)(C)C)[C@H](NC(=O)OC(C)(C)C)C(=O)O[Si](c1ccccc1)(c1ccccc1)C(C)(C)C` (stereo partly drawn) returned a TGI of 18.8 µM.

Compound `COc1ccc(-c2cc(-c3ccco3)c(C#N)c(=S)n2C2OC(COC(C)=O)C(OC(C)=O)C(OC(C)=O)C2OC(C)=O)cc1` (stereo not drawn) showed a TGI of more than 100 µM.

For `Cc1ccc(-c2c(C#N)c(-c3ccccc3)n(NS(=O)(=O)c3ccccc3)c(=O)c2C#N)cc1`, the TGI is more than 100 µM.

`COc1ccc(C(C#N)NNC(=O)c2ccccc2O)cc1OC` (stereo not drawn) gave a TGI of more than 100 µM.

The compound `O=c1[nH]n2c(=O)cc[nH]c2c1-c1nnns1` registered a TGI of more than 100 µM.

The compound `Cc1c(-c2nc3ccccc3[nH]2)c(=O)n(-c2ccccc2)n1C` came in with a TGI of more than 100 µM.

The compound `N.N.N.O=[N+]([O-])[O-].O=[N+]([O-])[O-].O=[N+]([O-])[O-].O=[N+]([O-])[O-].[Co+3]` displayed a TGI of more than 100 µM.

Regarding `Cc1nnc(Nc2ccccc2)o1`, the TGI is more than 100 µM.

Regarding `COc1cc(O)c(/C=N/N=C(\N)NO)c(OC)c1`, the TGI is more than 10 µM.
